Test results as given in patent publication US11278522B2, “Use of methadone metabolites for treatment of anxiety and depression” (Georgetown University, priority 2015, dated 2022).
pKi: −log10 of the molar value.

Assays:
Marble burying (mice) = type: in vivo, mouse; conditions: 15 min test, vehicle mean 11 of 20
Experimental: Marble Burying (Mice) After a 1 h period of acclimation to the testing room, the mice (n=6-10 per group) were injected i.p. with saline, EDDP, EMDP, or CDP at the doses indicated. Ten minutes later, the mice were placed individually in small cages (26×20×14 cm), in which twenty marbles had been equally distributed on top of mouse bedding (5-cm deep), and a wire lid was placed on top of the cage. Mice were left undisturbed for 15 min, after which time the number of buried marbles (i.e., those covered by bedding three-quarters or more) was counted.

[1] = Eyelid ptosis assessment (rats); type: in vivo, rat
Experimental: Ptosis was assessed as previously described (Rubin et al., 1957). Each animal was photographed while gently restrained by hand. Photographs were analyzed by a treatment blind observer (P.A.F.) and assigned a score of 0 (no ptosis, eye completely open), 1 (mild, eye partially closed), 2 (moderate, eye half closed), 3 (severe, eye […] closed), or 4 (complete, eye completely closed).

rat α3β4 nAChR channels = rat α3β4 nAChR channels (Rattus norvegicus, UniProt P04757+P12392); conditions: 2001, cited from earlier work
rat α3β4 nAChR channels, sequence (P04757 26-499): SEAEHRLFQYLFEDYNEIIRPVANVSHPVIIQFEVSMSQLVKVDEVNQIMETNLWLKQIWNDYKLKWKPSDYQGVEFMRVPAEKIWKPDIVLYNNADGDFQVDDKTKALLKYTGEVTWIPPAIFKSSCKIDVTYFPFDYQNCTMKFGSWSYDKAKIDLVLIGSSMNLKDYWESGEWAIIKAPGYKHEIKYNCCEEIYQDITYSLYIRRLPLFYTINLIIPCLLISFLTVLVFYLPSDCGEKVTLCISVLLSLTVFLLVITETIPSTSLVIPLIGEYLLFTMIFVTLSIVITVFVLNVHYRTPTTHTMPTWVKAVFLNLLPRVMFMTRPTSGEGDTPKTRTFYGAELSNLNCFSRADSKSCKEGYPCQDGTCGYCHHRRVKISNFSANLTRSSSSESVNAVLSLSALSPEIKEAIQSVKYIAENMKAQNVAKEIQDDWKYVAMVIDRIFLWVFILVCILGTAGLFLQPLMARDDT
rat α3β4 nAChR channels, sequence (P12392 21-495): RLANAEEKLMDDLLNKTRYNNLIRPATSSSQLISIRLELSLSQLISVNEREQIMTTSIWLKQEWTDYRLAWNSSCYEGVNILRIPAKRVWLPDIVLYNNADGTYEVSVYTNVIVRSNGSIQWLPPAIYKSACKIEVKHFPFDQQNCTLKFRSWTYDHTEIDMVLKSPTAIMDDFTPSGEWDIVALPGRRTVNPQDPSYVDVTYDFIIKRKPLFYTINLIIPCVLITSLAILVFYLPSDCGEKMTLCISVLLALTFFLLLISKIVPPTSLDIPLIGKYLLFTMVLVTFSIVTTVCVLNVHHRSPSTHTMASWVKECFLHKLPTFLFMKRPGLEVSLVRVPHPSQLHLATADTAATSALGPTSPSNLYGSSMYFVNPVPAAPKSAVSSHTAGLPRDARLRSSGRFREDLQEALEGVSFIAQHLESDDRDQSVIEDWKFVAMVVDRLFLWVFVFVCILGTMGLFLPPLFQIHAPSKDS

[2] = Elevated plus maze (rats); type: in vivo, rat
Experimental: Elevated Plus Maze (Rats) Plus maze testing was performed and scored as previously described (Forcelli and Heinrichs, 2008; Forcelli et al., 2012), in a standard grey rat elevated plus maze (50 cm arms, elevated 40 cm off the ground [Stoelting Co., Wood Dale, Ill.]). Testing was conducted under 20 lux red light, 30 min after drug administration. The number of arm entries and time spent in open and closed arms were recorded using ANYmaze (Stoelting Co, Wood Dale, Ill.).

Forced swim test (mice) = type: in vivo, mouse; conditions: 6 min test
Experimental: Forced Swim Test (FST; Mice) The FST in mice was conducted as previously described [11]. Briefly, 10 min following i.p. injection of saline, EDDP or EMDP, mice were placed in Plexiglas cylinders filled with water (25° C.) for 6 min while being videotaped. The forced swim score for the entire 6 min test was assessed using the Cleversystems videotracking system (CleverSys) and confirmed with visual scoring by a trained observer. A mouse was judged to be immobile when making only those movements necessary to keep its head above water.

human α3β4 nAChRs = target: T1, human α3β4 nAChRs (Homo sapiens, UniProt P30926+P32297); assay: 86Rb+ efflux assay, inhibition of nicotine-stimulated efflux, α3β4 nAChRs; type: cell-based
T1 construct: expressed in transfected cells
T1 sequence (P32297 32-505): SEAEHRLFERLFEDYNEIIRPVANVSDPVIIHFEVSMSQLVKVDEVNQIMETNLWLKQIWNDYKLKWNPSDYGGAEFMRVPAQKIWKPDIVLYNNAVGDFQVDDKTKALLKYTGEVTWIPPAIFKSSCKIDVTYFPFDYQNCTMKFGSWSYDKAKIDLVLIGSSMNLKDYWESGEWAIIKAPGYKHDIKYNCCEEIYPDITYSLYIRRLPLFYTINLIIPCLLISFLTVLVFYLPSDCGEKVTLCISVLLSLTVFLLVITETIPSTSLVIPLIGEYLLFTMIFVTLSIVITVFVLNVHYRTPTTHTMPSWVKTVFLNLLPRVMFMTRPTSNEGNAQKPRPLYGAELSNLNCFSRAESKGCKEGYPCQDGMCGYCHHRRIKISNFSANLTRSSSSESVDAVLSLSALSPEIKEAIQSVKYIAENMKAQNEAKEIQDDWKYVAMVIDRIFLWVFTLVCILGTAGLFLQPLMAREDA
T1 sequence (P30926 22-498): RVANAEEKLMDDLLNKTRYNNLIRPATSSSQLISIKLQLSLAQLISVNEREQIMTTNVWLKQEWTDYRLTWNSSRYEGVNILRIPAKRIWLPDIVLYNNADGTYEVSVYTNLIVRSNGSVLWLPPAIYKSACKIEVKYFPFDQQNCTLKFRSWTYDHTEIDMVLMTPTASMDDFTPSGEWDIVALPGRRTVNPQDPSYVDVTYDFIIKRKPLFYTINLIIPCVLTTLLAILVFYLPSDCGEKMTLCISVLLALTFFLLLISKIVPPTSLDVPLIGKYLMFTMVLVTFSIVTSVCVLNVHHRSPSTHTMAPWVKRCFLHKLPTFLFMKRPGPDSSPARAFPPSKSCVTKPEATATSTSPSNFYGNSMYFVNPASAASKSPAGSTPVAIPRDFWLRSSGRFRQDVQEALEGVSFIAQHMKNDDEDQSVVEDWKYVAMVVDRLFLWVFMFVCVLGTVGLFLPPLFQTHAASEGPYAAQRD
Experimental: Stable cell lines and ^86Rb^+ efflux Assay. […] These cell lines were maintained in minimum essential medium (MEM) supplemented with 10% fetal bovine serum, 100 units/mL penicillin G, […] and selective antibiotics at 37° C. with 5% CO2 in a humidified incubator. Tissue culture medium and antibiotics were obtained from Invitrogen Corporation (Carlsbad, Calif.), unless otherwise stated. Fetal bovine serum was obtained from Gemini Bio-Products (Woodland, Calif.).
In brief, cells were plated into 24-well plates coated with poly-D-lysine. […] The cells were then incubated in growth medium (0.5 mL/well) containing ^86Rb^+ (2 μCi/mL) for 4 hour at 37° C. The loading mixture was then aspirated, and the cells were washed four times with 1 mL buffer (15 mM HEPES, 140 mM NaCl, 2 mM KCl, 1 mM MgSO4, 1.8 mM CaCl2), 11 mM Glucose, pH 7.4). One mL of buffer with or without compounds to be tested was then added to each well. After incubation for 2 min, the assay buffer was collected for measurements of ^86Rb^+ released from the cells. Cells were then lysed by adding 1 mL of 100 mM NaOH to each well, and the lysate was collected for determination of the amount of ^86Rb^+ that was in the cells at the end of the efflux assay. Radioactivity of assay samples and lysates was measured by liquid scintillation counting. Total loading (cpm) was calculated as the sum of the assay sample and the lysate of each well, and the amount of ^86Rb^+ efflux was expressed as a percentage of ^86Rb^+ loaded. Stimulated ^86Rb^+ efflux was defined as the difference between efflux in the presence and absence of nicotine. […] IC50 values were determined by nonlinear least-squares regression analyses (GraphPad. San Diego, Calif.).

Forced swim test (rats) = type: in vivo, rat; conditions: three doses, 5 min test, vehicle 81 s
Experimental: Forced Swim Test (FST; Rats) The FST in rats was conducted as previously described (Porsolt et al., 2001). On day 1, rats were placed in a cylindrical chamber (20 cm in diameter, 46 cm deep) filled to a height of 38 cm with room temperature water for 15 min. After the completion of this pre-exposure test, animals were removed from the apparatus, dried with towels and placed under a heat lamp for ˜30 min. […] Animals were treated with these same doses again 20 h and 23 h after the initial dose. Twenty-four h after the pre-exposure, animals were re-introduced to the apparatus and video-recorded for 5 min. Immobility was hand-scored for each video record by a treatment blind observer (P.A.F.) using ANYmaze (Stoelting) to record the data.

[3] = Home cage locomotor activity (mice); type: in vivo, mouse; conditions: mice, 0.5, 1, 5, 10 mg/kg i.p., 60 min
Experimental: Locomotor Activity (Mice) Locomotor activity in response to i.p. drug administration was analyzed in a “home cage” activity monitoring system (Med Associates, St. Albans, Vt.), as previously described (Walters and Blendy, 2001; Mackler et al., 2008; Isiegas et al., 2009). Briefly, a novel cage identical to the home cage (28.9 cm×17.8 cm 12 cm) was placed in a photo-beam frame (30 cm×24 cm×8 cm) with sensors arranged in an 8-beam array strip. For dose studies, mice were injected i.p. with saline or drug. Immediately following drug administration, the mice were placed individually in the cages. Beam break data was monitored and recorded for 60 min.

[4] = Open field locomotor activity (rats); type: in vivo, rat; conditions: 5 mg/kg s.c., 30 min after injection
Experimental: Locomotor Activity (Rats) Locomotor activity was measured 30 minutes after sc injection of test compound. Animals were placed in a Plexiglass enclosure (16″×16″×16″, TruScan Arena, Coulbourn Instruments, Whitehall, Pa.) with 770 lux illumination over the center of the arena. Animals were allowed to explore for 20 min, during which total distance traveled was recorded using ANYmaze software (Stoelting Co., Wood Dale, Ill.), as previously described (Forcelli et al., 2012).

opiate receptors = assay: [3H]-naloxone binding competition in rat forebrain membranes

CCC1=NC(C)CC1(c1ccccc1)c1ccccc1 (racemic) [EMDP, 2-ethyl-5-methyl-3,3-diphenyl-1-pyrroline]
number of marbles buried vs vehicle (Marble burying (mice); 5 mg/kg i.p.): buried significantly fewer marbles | number of marbles buried vs vehicle (Marble burying (mice); 10 mg/kg i.p.): buried significantly fewer marbles | eyelid ptosis quantified over 3 h ([1]; 20 mg/kg): ptosis was not apparent at any time | ptosis observed during forced swim tests ([1]; 10 and 20 mg/kg): did not produce ptosis | potency relative to mecamylamine in blocking rat α3β4 nAChRs (rat α3β4 nAChR channels; Xiao et al): one-sixth as potent | block of rat α3β4 nAChR channels (rat α3β4 nAChR channels; Xiao et al.): potently block | mean duration in the open arms of the elevated plus maze ([2]; s.c., dose not given, 30 min after drug, vehicle 104 s): 143 s | percentage of entries made into the open arms of the plus maze ([2]; vs vehicle): the groups did not differ | latency to first entry in the open arms ([2]; vs vehicle (data not shown)): did not differ as a function of treatment group | duration of immobility in forced swim test vs vehicle (Forced swim test (mice); 5 mg/kg i.p.): did not affect immobility time | duration of immobility in forced swim test vs vehicle (Forced swim test (mice); 10 mg/kg i.p.): significantly reduced | potency relative to mecamylamine in blocking human α3β4 nAChRs (human α3β4 nAChRs): half as potent as mecamylamine | immobile time in forced swim test vs vehicle (Forced swim test (rats); 10 mg/kg s.c.): reduced immobile time | immobile time in forced swim test vs vehicle (Forced swim test (rats); 20 mg/kg s.c.): reduced immobile time | overall home cage locomotor activity [3]: did not significantly affect | open field locomotor activity [4]: neither EDDP nor EMDP significantly altered | fraction of [3H]-naloxone binding sites competed for (opiate receptors; at a concentration of 100 μM): 60% | apparent affinity, fold lower than that of methadone (opiate receptors; rat forebrain [3H]-naloxone binding): ~1900 fold | pKi (opiate receptors; rat forebrain membranes, 2 nM [3H]-naloxone, single-site model): 4.68
